Converted amounts (≈) assume the structure as drawn.
Assays:
Staphylococcus aureus [1] = assay: Antibacterial activity against methicillin-susceptible Staphylococcus aureus assessed as reduction in bacterial growth; type: functional
Enterococcus faecium [2] = assay: Antibacterial activity against vancomycin-resistant Enterococcus faecium; type: functional
Staphylococcus aureus [3] = assay: Antibacterial activity against methicillin-resistant Staphylococcus aureus J-108; type: functional
Enterococcus faecium [4] = assay: Antibacterial activity against vancomycin susceptible Enterococcus faecium119-39A assessed as inhibition of bacterial growth by broth microdilution method; type: functional; details: 119-39A
Pseudomonas aeruginosa [5] = assay: Antibacterial activity against wild type Pseudomonas aeruginosa ATCC 27853 after 24 hrs by microbroth dilution method; type: functional
Staphylococcus aureus [6] = assay: Antibacterial activity against Staphylococcus aureus ATCC 25923 assessed as reduction in microbial growth after 24 hrs by spectrophotometric method; type: functional
Salmonella typhimurium [7] = assay: Antibacterial activity against Salmonella typhimurium ATCC 1255 assessed as reduction in bacterial growth; type: functional, Salmonella enterica subsp. enterica serovar Typhimurium; details: Salmonella enterica
Staphylococcus aureus [8] = assay: Antibacterial activity against Staphylococcus aureus NCTC 11994 assessed as reduction in bacterial growth; type: functional
Staphylococcus aureus [9] = assay: Antibacterial activity against Staphylococcus aureus assessed as diameter of inhibition zone; type: functional
Bacillus cereus [10] = assay: Antibacterial activity against Bacillus cereus; type: functional
Staphylococcus aureus [11] = assay: Antibacterial activity against methicillin-resistant Staphylococcus aureus CGMCC1.12483 assessed as reduction in bacterial growth by CLSI protocol based broth microdilution method; type: functional
Vibrio rotiferianus = assay: Antibacterial activity against Vibrio rotiferianus MCCC E385 assessed as cell growth inhibition measured after 24 hrs by resazurin dye based assay; type: functional
Vibrio campbellii = assay: Antibacterial activity against Vibrio campbellii MCCC E333 assessed as cell growth inhibition measured after 24 hrs by resazurin dye based assay; type: functional
Staphylococcus aureus [12] = assay: Antibacterial activity against methicillin-resistant Staphylococcus aureus ATCC 43300 assessed as reduction in bacterial growth by CLSI protocol based broth microdilution method; type: functional
Escherichia coli [13] = assay: Antibacterial activity against Escherichia coli ATCC 8730 assessed as reduction in bacterial growth; type: functional
Streptococcus mutans = assay: Antibacterial activity against Streptococcus mutans ATCC 25175 assessed as inhibition of bacterial growth incubated for 18 to 20 hrs by CLSI protocol based broth microdilution method; type: functional; details: time 18-20 hrs
Salmonella = assay: Antibacterial activity against Salmonella ATCC 12022 assessed as inhibition of bacterial growth by standard broth microdilution method; type: functional
Porphyromonas gingivalis = assay: Antibacterial activity against Porphyromonas gingivalis ATCC 33277 assessed as reduction in bacterial growth incubated for 24 hrs by micro-dilution method; type: functional
Staphylococcus aureus [14] = assay: Antibacterial activity against Staphylococcus aureus ATCC 25923 assessed as reduction in microbial growth incubated for 24 hrs by broth micro-dilution method; type: functional
Escherichia coli [15] = assay: Antibacterial activity against Escherichia coli assessed as zone of inhibition; type: functional
[16] = tested on: Staphylococcus epidermidis; assay: Antibacterial activity against Staphylococcus epidermidis assessed as reduction in microbial growth; type: functional
Vibrio harveyi = assay: Antimicrobial activity against Vibrio harveyi assessed as bacterial growth inhibition; type: functional
Staphylococcus aureus [17] = assay: Antibacterial activity against Staphylococcus aureus assessed as reduction in microbial growth; type: functional
Aeromonas hydrophila [18] = assay: Antibacterial activity against Aeromonas hydrophila; type: functional
Proteus vulgaris = assay: Antimicrobial activity against Proteus vulgaris assessed as inhibition of bacterial growth; type: functional
Escherichia coli [19] = assay: Antibacterial activity against Escherichia coli assessed as reduction in bacterial growth incubated for 12 hrs by microdilution method; type: functional
Cryptococcus neoformans = assay: Antifungal activity against Cryptococcus neoformans assessed as reduction in microbial growth; type: functional
Aeromonas hydrophila [20] = assay: Antibacterial activity against Aeromonas hydrophila IB101; type: functional
[21] = tested on: Mycobacterium tuberculosis; assay: Antimycobacterial activity against Mycobacterium tuberculosis H37Ra assessed as reduction in microbial growth; type: functional
Epidermophyton floccosum = assay: Antifungal activity against Epidermophyton floccosum measured after 96 hrs by two fold serial dilution technique; type: functional
Pseudomonas aeruginosa [22] = assay: Antibacterial activity against Pseudomonas aeruginosa assessed as reduction in bacterial growth incubated for 24 hrs by broth microdilution method; type: functional
Candida albicans = assay: Antifungal activity against Candida albicans assessed as fungal growth inhibition by broth microdilution method; type: functional
Klebsiella aerogenes = assay: Antimicrobial activity against Enterobacter aerogenes ATCC 45102; type: functional
Rothia kristinae = assay: Antibacterial activity against Rothia kristinae assessed as reduction in microbial growth; type: functional
Staphylococcus aureus [23] = assay: Antibacterial activity against Staphylococcus aureus 4125 assessed as reduction in bacterial growth; type: functional
Pseudomonas aeruginosa [24] = assay: Antibacterial activity against Pseudomonas aeruginosa assessed as zone of inhibition; type: functional
Bacillus cereus [25] = assay: Antibacterial activity against Bacillus cereus assessed as reduction in microbial growth after 18 hrs by MTT based broth dilution method; type: functional
Neisseria gonorrhoeae = assay: Antibacterial activity against resistant Neisseria gonorrhoeae assessed inhibition of bacterial growth; type: functional
Escherichia coli [26] = assay: Antimicrobial activity against Escherichia coli assessed as reduction in microbial growth; type: functional
Trichophyton rubrum = assay: Antifungal activity against Trichophyton rubrum assessed as fungal growth inhibition; type: functional
Pseudomonas aeruginosa [27] = assay: Antibacterial activity against Pseudomonas aeruginosa TISTR 781 assessed as reduction in bacterial growth by broth microdilution method; type: functional
Bacillus subtilis = assay: Antibacterial activity against Bacillus subtilis ATCC 6051 assessed as reduction in bacterial growth incubated for 24 hrs by broth micro-dilution method; type: functional
Staphylococcus aureus [28] = assay: Antibiofilm activity against Staphylococcus aureus CMCC 26003 assessed as reduction in live bacteria in biofilm formation incubated for 24 hrs by crystal violet staining based analysis; type: functional
Staphylococcus aureus [29] = assay: Antibacterial activity against methicillin resistant Staphylococcus aureus ATCC 33592 incubated for 24 hrs by Mueller-Hinton broth based assay; type: functional
Pseudomonas aeruginosa [30] = assay: Antibacterial activity against Pseudomonas aeruginosa TISTR 781 assessed as inhibition of bacterial growth incubated for 16 to 18 hrs by Mueller-Hinton broth based two-fold serial dilution method; type: functional; details: time 16-18 hrs
Escherichia coli [31] = assay: Antibacterial activity against Escherichia coli ATCC 25922 assessed as bacterial growth inhibition measured after 48 hrs by resazurin assay; type: functional
Bacillus cereus [32] = assay: Antibacterial activity against Bacillus cereus TISTR 687 incubated for 16 to 18 hrs by Mueller-Hinton broth based two-fold serial dilution method; type: functional; details: time 16-18 hrs
[33] = tested on: Mycobacterium tuberculosis; assay: Anti-mycobacterial activity against Mycobacterium tuberculosis H37Ra assessed as reduction in bacterial growth […]; type: functional
Haemophilus parasuis = assay: Antibacterial activity against Haemophilus parasuis clinical isolates assessed as bacterial growth inhibition measured after 16 to 24 hrs by broth microdilution assay; type: functional; details: Glaesserella parasuis; time 16-24 hrs
Bacillus sp. = assay: Antibacterial activity against Bacillus sp. assessed as inhibition of bacterial growth; type: functional; details: Bacillus sp. (in: firmicutes)
Staphylococcus aureus [34] = assay: Antibacterial activity against Staphylococcus aureus ATCC 25923 assessed as reduction in bacterial growth incubated for 24 hrs by serial dilution method; type: functional
Salmonella typhimurium [35] = assay: Antibacterial activity against Salmonella typhimurium TISTR 780 assessed as inhibition of bacterial growth incubated for 16 to 18 hrs by Mueller-Hinton broth based two-fold serial dilution method; type: functional, Salmonella enterica subsp. enterica serovar Typhimurium; details: Salmonella enterica, time 16-18 hrs
Streptococcus suis = assay: Antibacterial activity against Streptococcus suis ATCC 700794 assessed as bacterial growth inhibition incubated for 24 hrs by broth micro-dilution method; type: functional
Pseudomonas aeruginosa [36] = assay: Antibacterial activity against Pseudomonas aeruginosa assessed as reduction in bacterial growth by broth microdilution method; type: functional
Acetylcholinesterase = Acetylcholinesterase (Homo sapiens, UniProt P22303); assay: Inhibition of Acetylcholinesterase (unknown origin)
Sequence of Acetylcholinesterase (P22303 whole entry): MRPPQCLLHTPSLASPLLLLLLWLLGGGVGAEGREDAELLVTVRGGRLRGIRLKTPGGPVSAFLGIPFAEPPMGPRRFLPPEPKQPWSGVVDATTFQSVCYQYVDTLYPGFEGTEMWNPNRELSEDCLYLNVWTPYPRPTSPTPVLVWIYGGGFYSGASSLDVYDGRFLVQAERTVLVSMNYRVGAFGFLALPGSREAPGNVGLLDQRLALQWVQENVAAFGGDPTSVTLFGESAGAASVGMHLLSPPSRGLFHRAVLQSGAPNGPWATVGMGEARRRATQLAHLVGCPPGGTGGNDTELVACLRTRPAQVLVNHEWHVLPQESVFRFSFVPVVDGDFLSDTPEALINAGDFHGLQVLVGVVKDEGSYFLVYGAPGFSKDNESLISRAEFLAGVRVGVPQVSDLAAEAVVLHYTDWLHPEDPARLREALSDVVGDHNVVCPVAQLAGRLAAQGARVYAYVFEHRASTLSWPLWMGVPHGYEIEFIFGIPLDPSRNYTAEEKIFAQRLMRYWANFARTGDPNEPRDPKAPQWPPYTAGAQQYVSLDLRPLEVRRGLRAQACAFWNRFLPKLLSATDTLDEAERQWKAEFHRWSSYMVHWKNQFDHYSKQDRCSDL

COc1cc2oc3cc(O)c(OC)c(CC=C(C)C)c3c(=O)c2c(O)c1CC=C(C)C
MIC (Staphylococcus aureus [1]): 6.25 µg/mL (≈ 14.7 µM) | MIC (Enterococcus faecium [2]): 6.25 µg/mL (≈ 14.7 µM) | MIC (Staphylococcus aureus [3]): 3.13 µg/mL (≈ 7.37 µM) | MIC (Enterococcus faecium [4]): 6.25 µg/mL (≈ 14.7 µM)

CCCOc1ccc(N2CCCCC2)c2c(=O)c3ccccc3sc12
MIC (Pseudomonas aeruginosa [5]): 32 µg/mL (≈ 90.5 µM)

COc1cc(C=O)c2c(=O)c3ccccc3oc2c1O
MIC (Pseudomonas aeruginosa [5]): 32 µg/mL (≈ 118 µM)

CN(CCO)CC(O)COc1cccc2c(=O)c3ccccc3oc12 (centres undefined)
MIC (Staphylococcus aureus [6]): < 20 µg/mL

COc1cc(C)c2c(c1[C@@H]1O[C@@H](CO)C(O)[C@@H](O)[C@@H]1OC(=O)/C=C\c1ccc(O)cc1)CC(CC(C)=O)=CC2=O (some centres undefined)
MIC (Salmonella typhimurium [7]): 0.18 µM (≈ 0.0995 µg/mL) | MIC (Staphylococcus aureus [8]): 0.72 µM (≈ 0.398 µg/mL)

COc1cc2c(c(O)c1OC)c(=O)c1ccc(O)cc1n2C
diameter of the inhibition zone (DIZ) (Staphylococcus aureus [9]): 9.58 mm

COC1=CC(=O)c2c(O)c3c(c(O)c2C1=O)CC(C)(O)C(OC(C)=O)C3 (centres undefined)
MIC (Bacillus cereus [10]): 0.0088 µM (≈ 0.00319 µg/mL)

C=CCNCC(O)COc1ccc2c(=O)c3cccc(C)c3oc2c1 (centres undefined)
MIC (Staphylococcus aureus [6]): < 20 µg/mL

COc1c(O)c(C=O)cc2c(=O)c3ccccc3oc12
MIC (Pseudomonas aeruginosa [5]): 32 µg/mL (≈ 118 µM)

COC1=CC(=O)c2c(cc3c(c2O)CC(O)C(C)(O)C3)C1=O (centres undefined)
MIC (Bacillus cereus [10]): 0.312 µM (≈ 0.0949 µg/mL)

CN(CCC(O)COc1cccc2c(=O)c3ccc(Cl)cc3oc12)C(C)(C)C (centres undefined)
MIC (Staphylococcus aureus [6]): < 20 µg/mL

COc1ccccc1CNCCC(O)COc1cccc2c(=O)c3ccccc3oc12 (centres undefined)
MIC (Staphylococcus aureus [6]): < 20 µg/mL

CC1=CC2c3c(O)c(O)c4oc5cc(O)cc(O)c5c(=O)c4c3[C@H](c3cc(O)c(O)c4oc5cc(O)cc(O)c5c(=O)c34)C2C(C)(C)C1 (some centres undefined)
MIC (Staphylococcus aureus [11]): 3.9 µg/mL (≈ 5.98 µM) | MIC (Vibrio rotiferianus): 15.6 µg/mL (≈ 23.9 µM) | MIC (Vibrio campbellii): 15.6 µg/mL (≈ 23.9 µM) | MIC (Staphylococcus aureus [12]): 3.9 µg/mL (≈ 5.98 µM)

Cc1cccc2c(=O)c3ccc(OCC(O)CNC(C)C)cc3oc12 (centres undefined)
MIC (Staphylococcus aureus [6]): < 20 µg/mL

O=C1c2cccc(O)c2C(=O)c2c(O)cc(CO)cc21 [ALOE-EMODIN]
MIC (Escherichia coli [13]): 125 µg/mL (≈ 463 µM) | MIC (Streptococcus mutans): 6.25 µg/mL (≈ 23.1 µM) | MIC (Salmonella): 250 µg/mL (≈ 925 µM) | MIC (Porphyromonas gingivalis): 2.5 µg/mL (≈ 9.25 µM) | MIC (Staphylococcus aureus [14]): 4 µg/mL

Cc1cc(O)c2c(c1)C(=O)c1cccc(O)c1C2=O [CHRYSOPHANOL]
inhibition zone (IZ) (Escherichia coli [15]): 18 mm | MIC [16]: > 250 µg/mL | MIC (Vibrio harveyi): 1000 µg/mL (≈ 3930 µM) | MIC (Staphylococcus aureus [17]): > 250 µg/mL | MIC (Aeromonas hydrophila [18]): 200 µg/mL (≈ 787 µM) | MIC (Proteus vulgaris): 128 µg/mL (≈ 503 µM) | MIC (Escherichia coli [19]): 125 µg/mL (≈ 492 µM) | MIC (Cryptococcus neoformans): 50 µg/mL | MIC (Aeromonas hydrophila [20]): 200 µg/mL (≈ 787 µM) | MIC [21]: 64 µg/mL | MIC (Epidermophyton floccosum): 625 µg/mL (≈ 2460 µM) | MIC (Pseudomonas aeruginosa [22]): 128 µg/mL (≈ 503 µM) | MIC (Candida albicans): 50 µg/mL (≈ 197 µM) | MIC (Klebsiella aerogenes): > 250 µg/mL | MIC (Rothia kristinae): > 250 µg/mL | MIC (Staphylococcus aureus [23]): 90 µg/mL (≈ 354 µM) | inhibition zone (IZ) (Pseudomonas aeruginosa [24]): 18 mm | MIC (Bacillus cereus [25]): > 250 µg/mL | MIC (Neisseria gonorrhoeae): 75 µg/mL (≈ 295 µM) | MIC (Escherichia coli [26]): 3.13 µg/mL | MIC (Trichophyton rubrum): 156 µg/mL (≈ 614 µM)

Cc1cc(O)c2c(c1)C(=O)c1cc(O)cc(O)c1C2=O [EMODIN]
MIC (Pseudomonas aeruginosa [27]): > 128 µg/mL | MIC (Bacillus subtilis): 8 µg/mL (≈ 29.6 µM) | MIC (Staphylococcus aureus [28]): 0.125 µg/mL (≈ 0.463 µM) | MIC (Staphylococcus aureus [29]): 4 µg/mL (≈ 14.8 µM) | MIC (Pseudomonas aeruginosa [30]): 128 µg/mL (≈ 474 µM) | MIC (Escherichia coli [31]): > 128 µg/mL | MIC (Bacillus cereus [32]): 16 µg/mL (≈ 59.2 µM) | MIC [33]: 0.9 µg/mL (≈ 3.33 µM) | MIC (Haemophilus parasuis): 32 µg/mL (≈ 118 µM) | MIC (Staphylococcus aureus [23]): 20 µg/mL (≈ 74 µM) | MIC (Bacillus sp.): 0.5 µg/mL (≈ 1.85 µM) | MIC (Staphylococcus aureus [34]): 64 µg/mL (≈ 237 µM) | MIC (Salmonella typhimurium [35]): 128 µg/mL (≈ 474 µM) | MIC (Streptococcus suis): 0.125 µg/mL (≈ 0.463 µM) | MIC (Pseudomonas aeruginosa [36]): > 128 µg/mL

COc1cc(O)c2c(c1)C(=O)c1cc(C)cc(O)c1C2=O [PHYSCION]
MIC (Staphylococcus aureus [23]): 90 µg/mL (≈ 317 µM)

O=C1c2ccccc2C(=O)c2c(O)c(O)cc(O)c21 [PURPURIN]
IC50 (Acetylcholinesterase): 300 nM
